Here are results for one compound from patent publication US12178825B2, “Method and compositions for forming a copper-containing complex and uses thereof” (COLD SPRING HARBOR LABORATORY, priority 2017, dated 2024).

One assay concerns the target T1, PTP1B1-405 (Homo sapiens, UniProt P18031).
T1 construct: PTP1B1-405 (the long form of PTP1B which contains the extended C-terminal segment); made in house; host or cells: Escherichia coli BL21 (DE3)-RIL
T1 sequence (P18031 1-405): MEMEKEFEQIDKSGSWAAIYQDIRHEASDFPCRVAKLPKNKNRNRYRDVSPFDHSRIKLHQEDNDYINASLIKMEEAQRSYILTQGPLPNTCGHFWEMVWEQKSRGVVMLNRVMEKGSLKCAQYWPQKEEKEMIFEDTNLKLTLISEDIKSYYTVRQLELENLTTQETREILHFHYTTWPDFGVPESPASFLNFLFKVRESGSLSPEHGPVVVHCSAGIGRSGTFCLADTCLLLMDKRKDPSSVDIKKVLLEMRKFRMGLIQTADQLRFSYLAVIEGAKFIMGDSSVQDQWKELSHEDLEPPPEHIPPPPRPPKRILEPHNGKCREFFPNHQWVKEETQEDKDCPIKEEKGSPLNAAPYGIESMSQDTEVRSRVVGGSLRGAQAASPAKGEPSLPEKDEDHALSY
Put plainly: PTP1B phosphatase activity assay, DiFMUP substrate, long form. The assay is classed as biochemical. How it is done:
(§1) All common reagents were obtained from Thermo Fisher Scientific (Waltham, MA) or Sigma-Aldrich (St. Louis, MO). Difluoro-4-methylumbelliferyl phosphate (DiFMUP) was obtained from Invitrogen (cat #D22065). Solid black 384-well plates (cat #3573) for phosphatase assays were from Corning Incorporated (Corning, NY).
(§2) Wild-type PTP1B containing a His-tag was expressed in Escherichia coli BL21 (DE3)-RIL using LB. Cells were resuspended in lysis buffer (50 mM Hepes pH 7.2, 150 mM NaCl, 10 mM imidazole, 2 mM TCEP) with cOmplete EDTA-free Protease Inhibitor Cocktail (Roche), and then lysed using a sonicator at 4° C. Lysates were clarified by centrifugation. Initial protein purification was by gravity flow, nickel column chromatography. Protein was used immediately or stored at −80° C. in 50 mM HEPES pH 7.4, 100 mM NaCl, 2 mM dithiothreitol and 25% glycerol.

The next assay concerns TNBC cells. In words: Cellular copper levels by ICP-MS. The assay is classed as cell-based. How it is done:
TNBC cells (1×10^6) were plated in a 10-cm culture dish in growth medium. About 24 h after seeding cells, they were untreated or treated with DPM-1001 (2 uM) or DPM-1003 (2 uM) for 2 h. Following which, cells were washed three times with PBS. Then, 215 μl of concentrated nitric acid (BDH Aristar Ultra) was added to each sample and incubated overnight. Samples were boiled at 95° C. for 1 h. and approximately 150 μl of each sample was further diluted in 2 ml 2% nitric acid (made freshly from concentrated nitric acid and Milli-Q water). Samples were analyzed on a Thermo Fisher iCAP Qc ICP mass spectrometer in kinetic energy discrimination (KED) mode against a calibration curve of known copper and phosphorus concentrations, with Ga (20 μg/l, Inorganic Ventures) as an internal standard. Each experiment was carried out twice and each condition was repeated in at least triplicate.

For another assay, the system named is metallothionein. In words: Metallothionein quantitation in liver and brain. It is filed as in vivo, mouse. The settings on record: TX mice. How it is done: Tissue samples (100 mg liver or 25 mg brain) were rinsed in PBS to remove excess blood and homogenized using a dounce homogenizer on ice (PBS, 1% tween). The samples were centrifuged at 5000×g for 5 minutes and the supernatant was collected. Total protein in the supernatant was measured using Bradford reagent and an equal amount of each sample (based on protein concentration) was used to measure metallothionein levels. Mouse metallothionein Elisa kit was purchased from Lifespan Biosciences, Inc and the assay was performed according to the users manual.

Another assay addresses T2, PTP1B1-321 (Homo sapiens, UniProt P18031).
T2 construct: C-terminally truncated PTP1B (1-321); made in house; host or cells: Escherichia coli BL21 (DE3)-RIL
T2 sequence (P18031 1-321): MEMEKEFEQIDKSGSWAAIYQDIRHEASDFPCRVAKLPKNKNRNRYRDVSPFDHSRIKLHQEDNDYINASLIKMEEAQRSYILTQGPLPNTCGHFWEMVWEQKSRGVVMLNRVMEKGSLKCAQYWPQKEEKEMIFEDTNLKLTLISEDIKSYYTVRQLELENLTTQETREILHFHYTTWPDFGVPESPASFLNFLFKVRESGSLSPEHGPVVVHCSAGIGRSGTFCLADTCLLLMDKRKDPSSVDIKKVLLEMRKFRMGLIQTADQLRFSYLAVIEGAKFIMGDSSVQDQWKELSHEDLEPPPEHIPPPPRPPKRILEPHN
Put plainly: PTP1B phosphatase activity assay, short form. It is filed as biochemical. How it is done: as §1, §2

A short description of assay [1]: Body weight in diet-induced obesity. It is filed as in vivo, C57Bl6/J mice. How it is done: All protocols were approved by the Institutional Animal Use and Care Committee of Cold Spring Harbor laboratory. 10 week-old male mice fed chow diet or high-fat diet (D12492) were acclimatized for 10 days under standard conditions before experiments. Mice were injected intraperitoneally (i.p.) once daily with vehicle, 5 mg/kg of DPM-1001 intraperitoneally or orally for 50 days. Mice were euthanized after 6 h of fasting, and serum samples were collected to measure the metabolic parameters and tissue samples were collected for studying changes in signaling.

Where [2] appears, read: enzyme-inhibitor complex diluted, activity recovery monitored.

Structures are written as SMILES. “Also recorded” adds a separate entry of the source. Where two headings read alike, the source gives them in different places.

As to `COC(=O)CCC(C)C1CCC2C3C(O)CC4CC(NCCCCNCc5ccccn5)CCC4(C)C3CCC12C` (stereo not shown) [DPM-1001], the IC50 at PTP1B1-405 (after a 30 minute pre-incubation, read-out: IC50 for PTP1B1-405) worked out at 100 nM; on PTP1B1-405 (compound pre-incubated with PTP1B, read-out: IC50, inhibition of PTP1B), 100 nM; at PTP1B1-405 (long form PTP1B1-405, DiFMUP substrate (FIG. 1), read-out: IC50, inhibition of the phosphatase), 100 nM; on PTP1B1-405 (no pre-incubation, read-out: IC50 for PTP1B1-405) it was 600 nM. The “reversibility of inhibition of PTP1B1-405” value on PTP1B1-405 (setting [2]) is “remained inactive over an extended period of time”. Moreover, the figures for the “time dependence of inhibition of PTP1B1-405” value on PTP1B1-405 (presence of catalase) and at PTP1B1-405 (presence or absence of PRX1) were “no obvious time dependence of inhibition” and “time-dependent increase in potency”, respectively. The cellular copper levels entry in the assay with TNBC cells is “depletion of copper; also recorded: reduces cellular copper levels”. Further, the metallothionein levels result in the assay with metallothionein was “prevents elevated metallothionein expression in liver; also recorded: lowered metallothionein levels in the liver and the brain”. The “reversibility of inhibition of PTP1B1-321” value on PTP1B1-321 (setting [2]) was “reversibly”. The “time dependent change in the IC50 for PTP1B1-321” value on PTP1B1-321 (varying incubation times) was “no obvious time dependent change”. For the same compound, the “weight loss in chow fed mice” value in assay [1] (chow diet) was “without weight loss; also recorded: no weight loss”. The “onset of weight loss” value in assay [1] (high fat diet-fed mice) was “started losing weight within five days of treatment”.

The term IC50 denotes the point on the concentration scale where inhibition reaches its midpoint.
